From patent US20250339518A1 (priority 2023, published 2025)

Key:
Format in all cases: cell-based, murine
MB49-STING KO cell line = test system: MB49-STING KO cell line
MB49 cells [1] = test system: MB49 cells
MB49 cells [2] = test system: MB49 cells; remark: listed apart in the source
[3] = test system: MB49-Double KO (MB49 2KO) cell line

Row | Structure (SMILES) | VAX014-induced IFN-β production, pIRF3/IRF3 ratios and PD-L1/MHC-I surface expression after inhibitor preincubation (MB49-STING KO cell line) | PD-L1 surface expression (MB49 cells [1]) | Type I IFN (IFN-β) production in culture supernatants (MB49 cells [2]) | IFN-β production [3] | Surface PD-L1 expression [3] | PD-L1 and MHC-I surface expression (MB49-STING KO cell line)
1 | CC(C)c1ccc2oc3nc(N)c(C(=O)O)cc3c(=O)c2c1 [Amlexanox] | nearly to baseline conditions of the untreated control | – | – | – | – | –
2 | Cc1ccc2c(=O)c3cccc(CC(=O)O)c3oc2c1C [DMXAA] | – | able to induce PD-L1 expression | stimulated IFN production | Complete loss | Complete loss | loss of PD-L1 and MHC-I
